# Experimental data taken from patent US20250197864A1, “LNCRNA TRANSCRIPTS IN MELANOMAGENESIS” (The Regents of the University of California, priority 2021, published 2025).
# Tested on: gene expression in D04 melanoma cells
# Experiment: RNA-Seq differential expression analysis (DESeq2)
# Assay type: cell-based, human
# Protocol: Total RNA was isolated using the RNeasy mini Kit (QIAGEN) following the manufacturer's protocol. Quality check for extracted RNA was done using 2100 Bioanalyzer (Agilent Technologies, USA) or Tapestation System (Agilent Technologies, USA). […] For samples used for identification of MAPK-responsive lncRNAs, paired-end, 101-bp sequencing was performed by Centrillion Genomic Services (Centrillion Biosciences, USA) on an Illumina HiSeq 2000. For DE gene analysis of ASO-transfected D04 samples, paired-end, 2×150-bp sequencing was performed by Genewiz (USA) on a Illumina HiSeq.
# Sequence reads were aligned to the human genome (hg19) using TopHat (Version 2.0.11).
# Differential expression (DE) analysis was done using DESeq2. Differentially expressed genes were defined by more than 1.5-fold changes (log 2 >0.58 or <−0.58) in expression with FDR<0.05. GO term analysis was done using DAVID Functional Annotation Clustering analysis.
# To examine the biomolecular changes upon TRASH-inhibition in melanoma, D04 cells were treated with TRASH-ASOs (SEQ ID NO:15) and Control-ASOs and RNA was extracted and used for RNA-Seq. […] These GO terms consisted of genes encoding growth factors, tyrosine kinases, G protein coupled receptor subunits, and collagen subunits. Scatter plot diagram showing differential gene expression after TRASH-ASO treatment compared to Control-ASO treatment. (cut-off for significance was adjusted p-value <0.05). Data was obtained from RNA-Seq of D04 melanoma cells, treatment period was three days. (FIG. 5c)
sequence,measurement,setting,value
"GACTGGAGATAATTAA (gapmer, pattern not given here) [SEQ ID NO: 15, GapmeR ASO targeting AC004540.4 (TRASH), exon region of both isoforms; used for in vitro experiments]",log2FoldChange,44256 (ENSG00000186205),1.274
same,log2FoldChange,44259 (ENSG00000144583),2.095
same,log2FoldChange,A2M (ENSG00000175899),−0.6461
same,log2FoldChange,AADACP1 (ENSG00000240602),1.744
same,log2FoldChange,AAGAB (ENSG00000103591),−0.6248
same,log2FoldChange,AAMDC (ENSG00000087884),−0.6077
same,log2FoldChange,ABCA7 (ENSG00000064687),−0.6185
same,log2FoldChange,AC004817.3 (ENSG00000269927),1.303
same,log2FoldChange,AC004949.1 (ENSG00000283117),−0.6056
same,log2FoldChange,AC005144.1 (ENSG00000283517),1.578
same,log2FoldChange,AC006058.1 (ENSG00000261786),−0.7044
same,log2FoldChange,AC009502.2 (ENSG00000231802),1.847
same,log2FoldChange,AC010735.1 (ENSG00000261379),−0.6617
same,log2FoldChange,AC010735.2 (ENSG00000272622),−0.6927
same,log2FoldChange,AC011944.1 (ENSG00000177699),1.481
same,log2FoldChange,AC022007.1 (ENSG00000206567),−0.6327
same,log2FoldChange,AC022031.2 (ENSG00000267284),−0.6353
same,log2FoldChange,AC048341.1 (ENSG00000257354),−0.6321
same,log2FoldChange,AC073130.1 (ENSG00000237870),1.474
same,log2FoldChange,AC090192.2 (ENSG00000253227),1.561
same,log2FoldChange,AC090204.1 (ENSG00000247134),−0.6895
same,log2FoldChange,AC090505.1 (ENSG00000234805),1.656
same,log2FoldChange,AC099552.1 (ENSG00000217825),2.619
same,log2FoldChange,AC105942.1 (ENSG00000235501),−0.6072
same,log2FoldChange,AC117386.2 (ENSG00000243944),−0.661
same,log2FoldChange,AC131254.1 (ENSG00000248964),2
same,log2FoldChange,AC133785.1 (ENSG00000233221),1.627
same,log2FoldChange,AC135782.1 (ENSG00000256982),1.563
same,log2FoldChange,AC139491.2 (ENSG00000248596),1.322
same,log2FoldChange,AC237221.1 (ENSG00000260653),1.665
same,log2FoldChange,AC245041.1 (ENSG00000273760),1.261
same,log2FoldChange,ACTBL2 (ENSG00000169067),−0.6731
same,log2FoldChange,ACTR3C (ENSG00000106526),−0.7012
same,log2FoldChange,ADCYAP1R1 (ENSG00000078549),2.87
same,log2FoldChange,ADGRA2 (ENSG00000020181),−0.7029
same,log2FoldChange,ADGRB1 (ENSG00000181790),1.472
same,log2FoldChange,ADGRE4P (ENSG00000268758),1.451
same,log2FoldChange,ADPRHL1 (ENSG00000153531),3.706
same,log2FoldChange,ADRB2 (ENSG00000169252),1.354
same,log2FoldChange,AHNAK2 (ENSG00000185567),1.379
same,log2FoldChange,AHR (ENSG00000106546),−0.6391
same,log2FoldChange,AKNAD1 (ENSG00000162641),1.238
same,log2FoldChange,AL161431.1 (ENSG00000275216),1.631
same,log2FoldChange,AL356234.3 (ENSG00000283265),2.668
same,log2FoldChange,AL365181.2 (ENSG00000272068),1.422
same,log2FoldChange,AL390334.1 (ENSG00000258932),−0.6259
same,log2FoldChange,AL512488.1 (ENSG00000230439),1.824
same,log2FoldChange,AL590004.4 (ENSG00000260604),1.853
same,log2FoldChange,ALMS1-IT1 (ENSG00000230002),1.247
same,log2FoldChange,ALOXE3 (ENSG00000179148),4.94
same,log2FoldChange,ALPI (ENSG00000163295),7.153
same,log2FoldChange,ANKH (ENSG00000154122),−0.6414
same,log2FoldChange,ANO2 (ENSG00000047617),2.643
same,log2FoldChange,ANXA8 (ENSG00000265190),1.513
same,log2FoldChange,ANXA8L1 (ENSG00000264230),1.299
same,log2FoldChange,APOA4 (ENSG00000110244),7.547
same,log2FoldChange,APOE (ENSG00000130203),−0.6001
same,log2FoldChange,AQP1 (ENSG00000240583),−0.6784
same,log2FoldChange,ARC (ENSG00000198576),1.257
same,log2FoldChange,ARHGDIB (ENSG00000111348),1.501
same,log2FoldChange,ARSA (ENSG00000100299),−0.6363
same,log2FoldChange,ATG9B (ENSG00000181652),1.674
same,log2FoldChange,ATP2B2 (ENSG00000157087),2.6809
same,log2FoldChange,B3GALT5 (ENSG00000183778),3.38
same,log2FoldChange,B4GALNT3 (ENSG00000139044),−0.6558
same,log2FoldChange,BAALC-AS1 (ENSG00000247081),−0.5946
same,log2FoldChange,BEX5 (ENSG00000184515),1.778
same,log2FoldChange,BHLHB9 (ENSG00000198908),−0.6347
same,log2FoldChange,BIRC7 (ENSG00000101197),1.54
same,log2FoldChange,BVES (ENSG00000112276),−0.7008
same,log2FoldChange,C1orf21 (ENSG00000116667),−0.5945
same,log2FoldChange,C1orf116 (ENSG00000182795),1.382
same,log2FoldChange,C3 (ENSG00000125730),−0.6635
same,log2FoldChange,C5 (ENSG00000106804),−0.69
same,log2FoldChange,C7orf57 (ENSG00000164746),1.917
same,log2FoldChange,C7orf69 (ENSG00000136275),−0.6813
same,log2FoldChange,C10orf55 (ENSG00000222047),2.331
same,log2FoldChange,C10orf90 (ENSG00000154493),−0.626
same,log2FoldChange,C11orf86 (ENSG00000173237),1.233
same,log2FoldChange,C15orf54 (ENSG00000175746),1.489
same,log2FoldChange,C16orf45 (ENSG00000166780),−0.6742
same,log2FoldChange,CACNA1D (ENSG00000157388),−0.6311
same,log2FoldChange,CACNA1H (ENSG00000196557),1.733
same,log2FoldChange,CALB2 (ENSG00000172137),1.839
same,log2FoldChange,CARMIL1 (ENSG00000079691),−0.6828
same,log2FoldChange,CASC9 (ENSG00000249395),−0.6279
same,log2FoldChange,CASTOR3 (ENSG00000239521),−0.6683
